Test results taken from US20240342133A1, “TOPICAL STATIN FORMULATION FOR TREATMENT OF LICHEN SCLEROSUS AND PSORIASIS” (TBT PHARMA, INC, priority 2023, published 2024).

How the values were obtained:
chronic wounds = assay: Full thickness diabetic porcine wound model; format: in vivo; conditions: for increase in wound vascularity (% vascularity): versus vehicle, day 10, PD31 stain
Method: FIG. 6. Histology sections of optimal dose at day 10 show increased epithelialization and vascularization. FIG. 7. Percent vascularity at day 10 determined by PD31 stain. […] Mevastatin, simvastatin, and a combination were tested in a full thickness diabetic porcine model. FIG. 6 confirms that statins are an effective treatment of chronic wounds with a known mechanism of action. The compounds show increased epithelialization and vascularization.

MRSA = MRSA load in ex-vivo wound cultures; parameters: species or system methicillin resistant staph aureus; conditions: after 24 hours
cortisol = assay: Cortisol levels in primary human keratinocyte cultures and organotype wound healing models; format: cell-based; conditions: after treatment
Text: FIG. 4. Cortisol levels in organotype wound models after treatment with mevastatin. […] Without cholesterol, local cortisol production should drop because cholesterol is required for cortisol synthesis. This was confirmed in primary human keratinocyte cultures and organotype wound healing models after treatment with mevastatin.

[1] = tested on: Primary human keratinocytes; assay: Keratinocyte migration scratch test; format: cell-based; conditions: varying doses
c-myc = c-myc expression in human skin ex-vivo (chronic wound) cultures and organotype wound models; format: cell-based; conditions: samples from chronic wounds, cultured, before and after treatment; relatively short time frame
Text: FIG. 3. C-myc expression in ex-vivo cultures before and after treatment with mevastatin. […] Samples are directly from chronic wounds, cultured, and measured c-myc levels before and after treatment with mevastatin. […] A large effect of high c-myc levels is that they cause abnormal differentiation and migration of keratinocytes.

[2] = full thickness diabetic porcine model, day 10

SMILES | epithelialization (chronic wounds; [2]) | vascularization (chronic wounds; [2]) | increase in wound vascularity (% vascularity) (chronic wounds) [fold] | MRSA load (MRSA) | local cortisol production (cortisol) | keratinocyte migration [1] | c-myc levels (c-myc)
CC[C@H](C)C(=O)O[C@H]1CCC=C2C=C[C@H](C)[C@H](CC[C@@H]3C[C@@H](O)CC(=O)O3)[C@H]21 [mevastatin] | increased | increased | ~3 | drastic reduction | drop | increasing migration levels with dose | drop drastically
CCC(C)(C)C(=O)O[C@H]1C[C@@H](C)C=C2C=C[C@H](C)[C@H](CC[C@@H]3C[C@@H](O)CC(=O)O3)[C@H]21 [simvastatin] |  |  | ~3 |  |  |  | 
